This is an account of results in patent US6706740B2, “Fungicidal heterocyclic aromatic amides and their compositions, methods of use and preparation” (Dow AgroSciences LLC, priority 1999, dated 2004).

Each structure is given as a SMILES string. Read-outs that look alike come from different tables or passages of the source.

One experiment deals with Ustilago maydis (USTIMA). In words: microbe, parasite or virus in culture. It is filed as cell-based. The conditions noted are these: Mycosarcoma maydis, read-out: USTIMA in vitro Growth Inhibition.
Experiment [1] deals with Mycosphaerella graminicola (Septoria tritici—SEPTTR). In words: In vitro fungal growth inhibition, Mycosphaerella graminicola (SEPTTR). It is filed as cell-based. As to conditions: Zymoseptoria tritici, read-out: SEPTTR in vitro Growth Inhibition.
The test system of experiment [2] is Phytophthora infestans (PHYTIN). In words: microbe, parasite or virus in culture. The format is cell-based. The conditions noted are these: Phytophthora infestans, read-out: PHYTIN in vitro Growth Inhibition.
Experiment [3] has as its system Rhizoctonia solani (RHIZSO). In words: microbe, parasite or virus in culture. It is filed as cell-based. The conditions noted are these: Rhizoctonia solani, read-out: RHIZSO in vitro Growth Inhibition.
Experiment [4] has as its system Stagonospora nodorum (Leptosphaeria nodorum—LEPTNO). The experiment can be described thus: In vitro fungal growth inhibition, Stagonospora nodorum (LEPTNO). The format is cell-based. The conditions noted are these: Leptosphaeria, read-out: LEPTNO in vitro Growth Inhibition.
Experiment [5] concerns Puccinia recondita—PUCCRT. In words: Brown Rust of Wheat, in vivo whole plant, 24 Hour Protectant. The conditions noted are these: for pest or weed control at 100 ppm: Puccinia, read-out: PUCCRT in vivo 1 Day Protectant.
The test system of a further experiment is Erysiphe graminis—ERYSGT. The experiment can be described thus: Powdery Mildew of Wheat, in vivo whole plant, 24 Hour Protectant. As to conditions: for pest or weed control at 100 ppm: Erysiphe, read-out: ERYSGT in vivo 1 Day Protectant.
Experiment [6] concerns Phytophthora infestans—PHYTIN. The experiment can be described thus: whole plant or invertebrate. The format is in vivo. The conditions noted are these: Phytophthora, in Solanum lycopersicum, 24 h, read-out: PHYTIN in vivo 1 Day Protectant.
The test system of experiment [7] is Leptosphaeria nodorum—LEPTNO. The experiment can be described thus: Glume Blotch of Wheat, in vivo whole plant, 24 Hour Protectant. As to conditions: for pest or weed control at 100 ppm: Leptosphaeria, read-out: LEPTNO in vivo 1 Day Protectant.
Experiment [8] relates to Magnaporthe grisea (Pyricularia oryzae—PYRIOR). The experiment can be described thus: microbe, parasite or virus in culture. The conditions noted are these: Pyricularia oryzae, read-out: PYRIOR in vitro Growth Inhibition. It is filed as cell-based.
The next experiment relates to Septoria tritici—SEPTTR. The experiment can be described thus: Leaf Blotch of Wheat, in vivo whole plant, 24 Hour Protectant. As to conditions: for pest or weed control at 100 ppm: Zymoseptoria tritici, 24 h, read-out: SEPTTR in vivo 1 Day Protectant.
Where [9] appears, read: wheat plants sprayed at 100 ppm, inoculated after 24 hours, control of fungal infection vs untreated plants.
The mark [10] stands for this setting: 100 ppm spray, wheat, 24 hour protectant, % control of fungal infection vs untreated plants.
Setting [11] is: 100 ppm spray, wheat, 24 hour protectant, control of fungal infection vs untreated plants.
The mark [12] stands for this setting: 100 ppm spray, 24 hour protectant, wheat, control of fungal infection vs untreated plants.

As usually defined, the inhibition is the change of the read-out against control, counted positive when it falls. As for `CC(C)C(=O)O[C@H]1[C@H](C)OC(=O)[C@@H](NC(=O)c2nnc(O)nc2O)COC(=O)[C@@H]1Cc1ccccc1` [Compound 544], the inhibition at 25 ppm (in the experiment with Ustilago maydis (USTIMA); in experiment [1] (25 ppm in the growth medium); in experiment [2]; in experiment [3]; in [4] (25 ppm in the growth medium); in experiment [8]) was less than 80% throughout. The pest or weed control at 100 ppm in experiment [5] (setting [9]) was 25 to 74%; in the experiment on Erysiphe graminis—ERYSGT (setting [9]), less than 25%; in experiment [6], less than 25%; in experiment [7] (setting [9]), 25 to 74%; in the experiment with Septoria tritici—SEPTTR (setting [9]), 25 to 74%.

Take `COc1ccnc(C(=O)N[C@H]2COC(=O)[C@H](Cc3ccccc3)[C@@H](OC(=O)C(C)C)[C@H](C)OC2=O)c1OC(=O)c1cccs1` [Compound 674]: the inhibition at 25 ppm in the experiment with Ustilago maydis (USTIMA) is less than 80%; in experiment [1] (25 ppm in growth medium) it was more than 80%; in experiment [2], less than 80%; in [3], less than 80%; in experiment [4] (25 ppm in growth medium), more than 80%; in experiment [8], less than 80%. The “PUCCRT in vivo 1 Day Protectant” value in experiment [5] (setting [10]) is on record as “+ +”. For the same molecule, the pest or weed control at 100 ppm in the experiment on Erysiphe graminis—ERYSGT (setting [10]) was less than 25%; in [6], less than 25%; in experiment [7] (setting [10]), 25 to 74%. Besides, in the experiment on Septoria tritici—SEPTTR (setting [10]), the “SEPTTR in vivo 1 Day Protectant” value is recorded as “+ +”.

For the molecule `CO/N=C(/c1ccc(NC(=O)c2nccc(OC)c2O)cc1)c1ccc(C(F)(F)F)cc1` [Compound 409], the inhibition at 25 ppm with Ustilago maydis (USTIMA) is less than 80%; in experiment [1] (25 ppm in growth medium), more than 80%; in experiment [2] it was more than 80%; in experiment [3], less than 80%; in experiment [4] (25 ppm in growth medium) it was more than 80%; in experiment [8] it was more than 80%. The pest or weed control at 100 ppm (in [5] (setting [11]); in the experiment on Erysiphe graminis—ERYSGT (setting [11]); in experiment [6]; in the experiment on Septoria tritici—SEPTTR (setting [11])) was 25 to 74% in each case. The “LEPTNO in vivo 1 Day Protectant” value in experiment [7] (setting [11]) is listed as “+ +”.

As for `COCC(=O)Oc1c(OC)ccnc1C(=O)N[C@H]1COC(=O)[C@H](Cc2ccccc2)[C@@H](OC(=O)C(C)C)[C@H](C)OC1=O` [Compound 653], the inhibition at 25 ppm with Ustilago maydis (USTIMA) was less than 80%; in experiment [1] (25 ppm in growth medium), more than 80%; in experiment [2], less than 80%; in experiment [3], less than 80%; in experiment [4] (25 ppm in growth medium) it was more than 80%; in [8] it was less than 80%. Besides, the “PUCCRT in vivo 1 Day Protectant” value in [5] (setting [10]) is reported as “+ +”. In addition, the “ERYSGT in vivo 1 Day Protectant” value with Erysiphe graminis—ERYSGT (setting [10]) is “+ +”. Further, the pest or weed control at 100 ppm in [6] was less than 25%. In addition, in experiment [7] (setting [10]), the “LEPTNO in vivo 1 Day Protectant” value was “+ +”. Further, in the experiment on Septoria tritici—SEPTTR (setting [10]), the “SEPTTR in vivo 1 Day Protectant” value is reported as “+ +”.

`COc1ccnc(C(=O)N[C@H]2C[C@@H](C(F)(F)F)C[C@@H](C(F)(F)F)C2)c1OC(C)=O` [Compound 576]: the inhibition at 25 ppm (with Ustilago maydis (USTIMA); in [1] (25 ppm in the growth medium); in experiment [2]; in experiment [3]; in [4] (25 ppm in the growth medium); in experiment [8]) was less than 80% in each case. For the same molecule, the pest or weed control at 100 ppm was 25 to 74% in experiment [5] (setting [9]); less than 25% in the experiment on Erysiphe graminis—ERYSGT (setting [9]); less than 25% in experiment [6]; 25 to 74% in [7] (setting [9]); 25 to 74% in the experiment with Septoria tritici—SEPTTR (setting [9]).

As to `O=C(NCCCCc1ccccc1)c1ncccc1O` [Compound 234], the inhibition at 25 ppm in the experiment with Ustilago maydis (USTIMA) was less than 80%; in [1] (25 ppm in growth medium), less than 80%; in [2], more than 80%; in experiment [3] it was less than 80%; in experiment [4] (25 ppm in growth medium), more than 80%; in experiment [8] it was more than 80%. The pest or weed control at 100 ppm is less than 25% in [5] (setting [12]); less than 25% in the experiment on Erysiphe graminis—ERYSGT (setting [12]); less than 25% in experiment [6]; less than 25% in experiment [7] (setting [12]); 25 to 74% in the experiment on Septoria tritici—SEPTTR (setting [12]).

Take `COc1ccnc(C(=O)N[C@@H](Cc2ccc(OCc3ccccc3)cc2)C(=O)OCc2ccccc2)c1O` [Compound 339]: the inhibition at 25 ppm (in the experiment with Ustilago maydis (USTIMA); in experiment [1] (25 ppm in growth medium); in experiment [2]; in experiment [3]; in experiment [4] (25 ppm in growth medium); in experiment [8]) was less than 80% throughout. In [5] (setting [11]), the “PUCCRT in vivo 1 Day Protectant” value is recorded as “+ +”. The pest or weed control at 100 ppm (in the experiment with Erysiphe graminis—ERYSGT (setting [11]); in [6]) was less than 25% each time. The “LEPTNO in vivo 1 Day Protectant” value in [7] (setting [11]) is recorded as “+ +”. Also, the “SEPTTR in vivo 1 Day Protectant” value in the experiment with Septoria tritici—SEPTTR (setting [11]) is “+ +”.

With `COc1ccccc1Oc1cccc(NC(=O)c2nccc(OC)c2O)c1` [Compound 430], the inhibition at 25 ppm (with Ustilago maydis (USTIMA); in [1] (25 ppm in growth medium); in [2]; in [3]; in [4] (25 ppm in growth medium); in [8]) was less than 80% throughout. Moreover, the pest or weed control at 100 ppm in [5] (setting [11]) was less than 25%; in the experiment with Erysiphe graminis—ERYSGT (setting [11]) it was less than 25%; in [6], 25 to 74%; in experiment [7] (setting [11]), less than 25%; in the experiment on Septoria tritici—SEPTTR (setting [11]) it was less than 25%.

Regarding `COc1ccc(Oc2cccc(NC(=O)c3nccc(OC)c3O)c2)cc1` [Compound 432], the inhibition at 25 ppm in the experiment on Ustilago maydis (USTIMA) is less than 80%; in [1] (25 ppm in growth medium), more than 80%; in experiment [2], less than 80%; in experiment [3], less than 80%; in experiment [4] (25 ppm in growth medium), more than 80%; in experiment [8] it was less than 80%. The pest or weed control at 100 ppm in experiment [5] (setting [11]) was 25 to 74%; in the experiment with Erysiphe graminis—ERYSGT (setting [11]) it was less than 25%; in experiment [6] it was less than 25%; in [7] (setting [11]) it was 25 to 74%; in the experiment on Septoria tritici—SEPTTR (setting [11]), less than 25%.

For the molecule `C[C@H]1C2CC([C@H]3CCC[C@@H]23)[C@@H]1NC(=O)c1ncccc1O` (stereo partly shown) [Compound 207], the inhibition at 25 ppm in the experiment on Ustilago maydis (USTIMA) was less than 80%; in [1] (25 ppm in growth medium) it was more than 80%; in [2] it was less than 80%; in [3] it was less than 80%; in experiment [4] (25 ppm in growth medium), more than 80%; in experiment [8], more than 80%. Besides, the pest or weed control at 100 ppm (in [5] (setting [12]); in the experiment with Erysiphe graminis—ERYSGT (setting [12]); in experiment [6]; in experiment [7] (setting [12]); with Septoria tritici—SEPTTR (setting [12])) was less than 25% throughout.

As for `COc1ccnc(C(=O)N[C@@H]2O[C@H](COC(C)=O)[C@H](OC(C)=O)[C@H](OC(C)=O)[C@H]2OC(C)=O)c1OC(C)=O` [Compound 591], the inhibition at 25 ppm (in the experiment with Ustilago maydis (USTIMA); in experiment [1] (25 ppm in the growth medium); in experiment [2]; in [3]; in [4] (25 ppm in the growth medium); in experiment [8]) was less than 80% in each case. Further, the pest or weed control at 100 ppm was less than 25% in experiment [5] (setting [9]); less than 25% in the experiment with Erysiphe graminis—ERYSGT (setting [9]); less than 25% in experiment [6]; 25 to 74% in [7] (setting [9]); 25 to 74% in the experiment with Septoria tritici—SEPTTR (setting [9]).
